The target in this experiment is T1, LpFAT A (FAT A from LEMPA; acyl-ACP thioesterase) (Lemna aequinoctialis, UniProt Z9A7P1QTQ5).
T1 construct: chloroplast transit peptide replaced by N-terminal 6xHis-tag; pET24; E. coli BL21Star(DE3); Ni-NTA purified
T1 sequence (Z9A7P1QTQ5 10-320): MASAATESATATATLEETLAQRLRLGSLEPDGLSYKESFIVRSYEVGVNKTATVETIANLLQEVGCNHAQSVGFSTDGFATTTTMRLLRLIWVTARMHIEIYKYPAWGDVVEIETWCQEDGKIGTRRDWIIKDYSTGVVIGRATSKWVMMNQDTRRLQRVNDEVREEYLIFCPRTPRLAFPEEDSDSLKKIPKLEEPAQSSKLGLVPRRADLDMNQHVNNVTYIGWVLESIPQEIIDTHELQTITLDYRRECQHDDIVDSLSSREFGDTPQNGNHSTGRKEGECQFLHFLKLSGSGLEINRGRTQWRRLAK
Kind of experiment: fluorescence polarization competition with fluorescent tracer. Type of experiment: binding. Particulars: 25 mM potassium phosphate pH 7.3, 200 mM NaCl, 0.01% Triton X-100, 2 nM tracer, room temperature; value is negative log. The text has this:
fluorescence polarization competition with fluorescent tracer on LpFAT A (FAT A from LEMPA; acyl-ACP thioesterase)

A value given as a limit tells only on which side of the number the result lay.

The compound `Cc1cc2c(nc1-c1ccccc1)NCS2` [7a] yielded a pI50 of 5.9.

In the case of `Cc1cc2c(nc1-c1ccccc1F)NCS2` [7b, 5-(2-Fluorophenyl)-6-methyl-2,3-dihydro[1,3]thiazolo[4,5-b]pyridine], the pI50 was 6.1.

In the case of `Cc1ccccc1-c1nc2c(cc1C)SCN2` [7c], the pI50 was 6.3.

For the compound `Brc1cc2c(nc1-c1ccccc1)NCS2` [13a, 6-Bromo-5-phenyl-2,3-dihydrothiazolo[4,5-b]pyridine], the pI50 is reported as 5.7.

With `Fc1ccccc1-c1nc2c(cc1Br)SCN2` [13b, 6-bromo-5-(2-fluorophenyl)-2,3-dihydro[1,3]thiazolo[4,5-b]pyridine], the pI50 was 7.3.

The compound `Cc1ccccc1-c1nc2c(cc1Br)SCN2` [13c, 6-bromo-5-(2-tolyl)-2,3-dihydrothiazolo[4,5-b]pyridine] came in with a pI50 of 4.5.

As to `CC(=O)N1CSc2cc(Br)c(-c3ccccc3)nc21` [14a], the pI50 worked out at 5.5.

As to `CC(C)C(=O)N1CSc2cc(Br)c(-c3ccccc3F)nc21` [14b], the pI50 worked out at 4.7.

In turn, `CC(=O)N1CSc2cc(Br)c(-c3ccccc3C)nc21` [14c] came in with a pI50 of 4.3.

Consider `CC(=O)N1CSc2cc(C)c(-c3ccccc3)nc21` [16a], for which the pI50 is given as 5.5.

Regarding `Cc1cc2c(nc1-c1ccccc1)N(C(=O)C(C)C)CS2` [16b], the pI50 worked out at 4.7.

For `CC(=O)N1CSc2cc(C)c(-c3ccccc3F)nc21` [16c, 1-[5-(2-fluorophenyl)-6-methyl[1,3]thiazolo[4,5-b]pyridin-3(2H)-yl]ethanone], the pI50 is on record as 5.3.

Take `Cc1cc2c(nc1-c1ccccc1F)N(C(=O)C(C)C)CS2` [16d]: the pI50 is listed as 4.7.

The compound `CC(=O)N1CSc2cc(C)c(-c3ccccc3C)nc21` [16e] showed a pI50 of 4.1.

The compound `Cc1ccccc1-c1nc2c(cc1C)SCN2C(=O)C(C)C` [16f] gave a pI50 of 4.8.

Turning to `BN1CSc2cc(Br)c(-c3ccccc3C)nc21` [17d, aminoborane 17d], the pI50 worked out at 4.8.

As to `Cc1ccccc1-c1nc2c(cc1Br)SCN2B1NB(N)N1` [17e, aminoborane 17e], the pI50 is on record as less than 4.0.

For `Cc1ccccc1COC1CC2(C(C)C)CCC1(C)O2` (centres unmarked) [compound 1, cinmethylin, reference compound], the pI50 was determined as 6.8.

`Cc1ccsc1C1=NOC(C)(COCc2c(F)cccc2F)C1` (centres unmarked) [compound 2, methiozolin, reference compound]: the pI50 came to 7.1.

As to `Cc1cc2scnc2nc1-c1ccccc1F` [compound 5, 5-(2-fluorophenyl)-6-methyl[1,3]thiazolo[4,5-b]pyridine, reference compound], the pI50 stood at 7.2.

The values above are taken from article PMC10910475, “Synthesis and biological profile of 2,3-dihydro[1,3]thiazolo[4,5-b]pyridines, a novel class of acyl-ACP thioesterase inhibitors” (Beilstein Journal of Organic Chemistry, 2024).
